Series [1] relates to human MDA-MB-231 triple negative breast cancer tumors. As to the kind of experiment: in vivo anti-tumor activity of ZD2-HZ-JAAP, MDA-MB-231 tumors. More on the design: species or system nude mice. As to the method:
The in vivo anti-tumor activity of ZD2-HZ-JAAP was evaluated in the nude mice carrying human MDA-MB-231 triple negative breast cancer tumors. The ZD2-HZ-JAAP drug conjugate was administrated to the mice with human MDA-MB-231 tumors by daily i.p. injection at a dose of 4.4 μmol/kg/day for 30 days. The tumor sizes and body weights of the mice were measured twice a week. The tumor growth was also monitored using bioluminescence imaging on the day 1, 16, and 25 after drug administration, and MRI imaging on the day 7 and 28 after the drug administration. For the ZD2-HZ-JAAP treatment group the tumor growth was inhibited with average tumor size of 80 mm^3 after 30-days of drug treatment, while for the no-treatment control group the tumors were kept growing with average tumor size of 580 mm^3 after 30-days of no treatment. […] In literature, the treatment dose of JQ1 is 50 mg/kg/day or 0.11 mmol/kg/day by i.p. injection to treat the mice with tumors. The dose of ZD2-HZ-JAAP administered by the inventors is 4.4 μmol/kg/day, which is 25-times lower than JQ1 dose. […] Since ZD2-HZ-JAAP is a target-drug that is delivered and accumulated to the tumor site, which results in low toxicity for normal tissues. Target-drug delivery results in high drug concentration at tumor site, and low concentration at normal tissues with efficient killing of tumor cells and low toxicity to normal cells.

In series [2] the test system is 4T1 breast tumor xenografts. In words: anti-tumor efficacy of ZD2-HZ-JAAP, 4T1 breast tumor xenografts. The class given is in vivo, BALB/C mice. The settings on record: daily i.p. 7.34 μmol/kg/day for 29 days; n=5; PBS control 645±240 mm^3. An excerpt:
(§1) Anti-tumor efficacy of ZD2-HZ-JAAP conjugate was also investigated using the mice bearing PC3 prostate or 4T1 breast tumor xenografts. For tumor xenografts, PC3 prostate or 4T1 breast cancer cells suspended in Matrigel-PBS were subcutaneously injected into the flank of nude mice or mammary fat pads of BALB/C mice, respectively. Tumor volumes were monitored and measured twice a week using a Vernier caliper. When the average tumor volumes reached 100 mm^3 for PC3 tumors, and 45 mm^3 for 4T1 tumors, the mice bearing tumor xenografts were randomized into PBS control, JQ1 and ZD2-HZ-JAAP treatment groups (n=6 for PC3 tumors or 5 for 4T1 tumors). Free JQ1 and ZD2-HZ-JAAP conjugates were administrated by daily intraperitoneal injection for 29 days at a dose of 7.34 μmol/kg/day. Tumor size and bodyweight were monitored twice a week. The tumor sizes were measured with Vernier calipers, and tumor volumes were calculated using the equation V=(L*W2)/2.

In series [3] the test system is PC3 prostate tumor xenografts. The settings on record: for tumor volume by the end of the treatment (mean±SD): daily i.p. 7.34 μmol/kg/day for 29 days, n=6, PBS control 1223±136 mm^3.
Excerpt: as §1

For series [4], the system named is DLD-1-DR drug resistant colon cancer, PANC-1 and BXPC3 pancreatic cancer, CAL27, SCC4 and HSC3 head and neck cancer cells, MDA-MB-231 and 4T1 breast cancer …. As to the kind of experiment: cell cytotoxicity of ZD2-HZ-JAAP in cancer cell panel. It counts as cell-based. The settings on record: after 48 hours incubation; compared with JQ1 or JAAP; FIG. 2. As to the method:
FIG. 2 provides graphs showing the cell viability of different cancer cells treated with ZD2-HZ-JAAP.
The cell cytotoxicity of ZD2-HZ-JAAP was tested using DLD-1-DR drug resistant colon cancer, PANC-1 and BXPC3 pancreatic cancer, CAL27, SCC4 and HSC3 head and neck cancer cells, MDA-MB-231 and 4T1 breast cancer cells, PC3 and C4-2 prostate cancer cells.

Series [5] has as its system 4T1 breast tumor xenografts. To be noted: i.p. 8.28 μmol/kg/week. As to the method: Anti-tumor efficacy of ZD2-HZ-DOX conjugate was investigated using the mice bearing 4T1 breast tumor xenografts. For tumor xenografts, 2×10^5 4T1 breast cancer cells suspended in Matrigel-PBS were injected into the mammary fat pads of each BALB/C mouse. Tumor volumes were monitored and measured twice a week using a Vernier caliper. When the average tumor volumes reached 100 mm^3, the BALB/C mice bearing 4T1 breast tumors were randomized into PBS control, free doxorubicin and ZD2-HZ-DOX treatment groups (n=5). Free doxorubicin and ZD2-HZ-DOX conjugates were administrated by intraperitoneal injection for 23 days at a dose of 8.28 μmol/kg/week with 3-injections per week, and 2.76 μmol/kg for each injection. Tumor size and bodyweight were monitored twice a week. The tumor sizes were measured with Vernier calipers, and tumor volumes were calculated using the equation V=(L*W2)/2.

The subject of series [6] is PC3 prostate cancer, 4T1 and MDA-MB-231 breast cancer cells. As to the kind of experiment: cell cytotoxicity of DOX conjugates in PC3, 4T1 and MDA-MB-231 cells. To be noted: at 2.5, 5 and 10 μM; compared with doxorubicin; FIG. 11. It counts as cell-based. As to the method: The reason for the lower cytotoxicity is the slow release of DOX from the ZD2-AM-DOX conjugated with an amide bond.
The cell cytotoxicity of the ZD2-PEG-HZ-DOX was tested using PC3 prostate cancer, 4T1 and MDA-MB-231 breast cancer cells at concentrations of […].

The structures appear in SMILES notation. Entries after “also recorded” stand apart in the source; their conditions may differ. Some results are limits rather than exact numbers.

Take `Cc1ccc(C(Cl)(c2ccccc2)c2ccccc2Cl)cc1` (stereo not shown) [ZD2-HZ-JAAP]: the tumor growth inhibition entry in series [1] (4.4 μmol/kg/day, 25-times lower than literature JQ1 dose) was “efficiently inhibited the triple-negative breast cancer tumor growth”. The compound further yielded an average tumor size in series [1] (after 30 days of treatment, daily i.p. 4.4 μmol/kg/day, no-treatment control 580 mm^3) of 80 mm^3. Moreover, the “body weight of the mice” value in series [1] (daily i.p. 4.4 μmol/kg/day for 30 days, vs no-treatment group) is on record as “kept growing; also recorded: no significant difference”. The “tumor volume by the end of the treatment (mean±SD)” value in series [2] is listed as 46±30 mm^3; in series [3], 150±80 mm^3. Moreover, in series [3] (mice bearing PC3 or 4T1 tumors, 29 days of treatment, 7.34 μmol/kg/day i.p.), the “survival during treatment period” value is reported as “all mice were survived”. In addition, the “bodyweight change relative to initial weight” value in series [3] (mice bearing PC3 or 4T1 tumors, daily i.p. 7.34 μmol/kg/day, 29 days) was no more than 10%. For the same compound, the cell cytotoxicity result in series [4] is given as “lower than that of JQ1 or JAAP”.
With `COc1cccc2c1C(=O)c1c(O)c3c(c(O)c1C2=O)C[C@@](O)(C(=O)CO)C[C@@H]3O[C@H]1C[C@H](N)[C@H](O)[C@H](C)O1` [doxorubicin], the survival entry in series [5] (24-day treatment period) was “One mouse died on day 10, and all remaining mice died on day 11”. Further, in series [5] (at day 10), the “loss of bodyweight relative to initial weight” value is on record as 25%.
With `Cc1ccc(C(Cl)(c2ccccc2)c2ccccc2Cl)cc1` (stereo not shown) [ZD2-AM-DOX], the cell cytotoxicity result in series [6] was “lower than that of doxorubicin”.
Turning to `Cc1sc2c(c1C)C(c1ccc(Cl)cc1)=N[C@@H](CC(=O)OC(C)(C)C)c1nnc(C)n1-2` [JQ1, reference compound], in series [3], the “tumor volume by the end of the treatment (mean±SD)” value is reported as 537±170 mm^3. Besides, the “suppression of tumor growth” value in series [3] (same dose as ZD2-HZ-JAAP, 7.34 μmol/kg/day i.p.) is recorded as “didn't efficiently suppress tumor growth”.

The values are drawn from patent publication US20240252662A1, “PEPTIDE DRUG CONJUGATES SPECIFIC TO FIBRONECTIN ISOTYPES FOR CANCER THERAPY” (priority 2021, published 2024).
